Test results taken from patent US7820623B2 (priority 2006, dated 2010).
Like-named read-outs stand apart in the source and are kept apart here. Bridge positions count the residues as written; N and C are the ends. Square brackets hold non-standard residues; d marks the D form. Ends that are not written are not given here. Peptide text beside a SMILES is read from it. 1Nal = N[C@@H](Cc1cccc2ccccc12)C(=O)O

B1: FcLoop-L2-OsK1-L2: OsK1 inserted into the human IgG1 Fc-loop domain with 2-Gly linkers on either side (protein)
chain: MDKTHTCPPCPAPELLGGPSVFLFPPKPKDTLMISRTPEVTCVVVDVSHEDPEVKFNWYVDGVEVHNAKTKPREEQYNSTYRVVSVLTVLHQDWLNGKEYKCKVSNKALPAPIEKTISKAKGQPREPQVYTLPPSRDELGGGVIINVKCKISRQCLEPCKKAGMRFGKCMNGKCHCTPKGGTKNQVSLTCLVKGFYPSDIAVEWESNGQPENNYKTTPPVLDSDGSFFLYSKLTVDKSRWQQGNVFSCSVMHEALHNHYTQKSLSLSPGK
modifications: Definition of Artificial Sequence: Synthetic protein
B2: FcLoop-L2-ShK-L2: ShK inserted into the human IgG1 Fc-loop domain with 2-Gly linkers (protein)
chain: MDKTHTCPPCPAPELLGGPSVFLFPPKPKDTLMISRTPEVTCVVVDVSHEDPEVKFNWYVDGVEVHNAKTKPREEQYNSTYRVVSVLTVLHQDWLNGKEYKCKVSNKALPAPIEKTISKAKGQPREPQVYTLPPSRDELGGRSCIDTIPKSRCTAFQCKHSMKYRLSFCRKTCGTCGGTKNQVSLTCLVKGFYPSDIAVEWESNGQPENNYKTTPPVLDSDGSFFLYSKLTVDKSRWQQGNVFSCSVMHEALHNHYTQKSLSLSPGK
modifications: Definition of Artificial Sequence: Synthetic protein

Columns and labels:
[1] = system: thapsigargin-induced IFN-g production in human whole blood; type: cell-based
[2] = system: thapsigargin-induced IL-2 production in human whole blood
[3] = read-out: Analogue Activity (IC50) WB/IFNg
[4] = read-out: Analogue Activity (IC50) WB/IL-2

Molecule	IC50 [1, 3]	IC50 [2, 4]	blockade of the whole blood cytokine response, IL-2 and IFNg [2]	other results
CC[C@H](C)[C@@H]1NC(=O)[C@H](CCCCN)NC(=O)[C@@H](NC(=O)[C@H](CCCCN)NC(=O)[C@@H](NC(=O)[C@H](CC(N)=O)NC(=O)[C@@H](NC(=O)[C@@H](NC(=O)[C@@H](NC(=O)CN)C(C)C)[C@@H](C)CC)[C@@H](C)CC)C(C)C)CSSC[C@@H]2NC(=O)[C@H](CCCCN)NC(=O)CNC(=O)[C@H](Cc3ccccc3)NC(=O)[C@H](CCCNC(=N)N)NC(=O)[C@H](CCSC)NC(=O)CNC(=O)[C@H](CCCNC(=N)N)NC(=O)[C@H](CCCCN)NC(=O)[C@H](CCCCN)NC(=O)[C@@H]3CSSC[C@@H](C(=O)N[C@H](C(=O)N4CCC[C@H]4C(=O)N[C@@H](CCCCN)C(=O)O)[C@@H](C)O)NC(=O)[C@H](Cc4c[nH]cn4)NC(=O)[C@H](CSSC[C@H](NC(=O)[C@H](CCC(N)=O)NC(=O)[C@H](CCCNC(=N)N)NC(=O)[C@H](CO)NC1=O)C(=O)N[C@@H](CC(C)C)C(=O)N[C@@H](CCC(=O)O)C(=O)N1CCC[C@H]1C(=O)N3)NC(=O)[C@H](CCCCN)NC(=O)CNC(=O)[C@H](CC(N)=O)NC(=O)[C@H](CCSC)NC2=O [A21R] (H-GVIINVKCKISRQCLEPCKKRGMRFGKCMNGKCHCTPK-OH; disulfide 8-28, 14-33, 18-35)	0.149 nM	0.09 nM		
CC[C@H](C)[C@@H]1NC(=O)[C@H](CCCCN)NC(=O)[C@@H](NC(=O)[C@H](CCCCN)NC(=O)[C@@H](NC(=O)[C@H](CC(N)=O)NC(=O)[C@@H](NC(=O)[C@@H](NC(=O)[C@@H](NC(=O)CN)C(C)C)[C@@H](C)CC)[C@@H](C)CC)C(C)C)CSSC[C@@H]2NC(=O)[C@H](CCCCN)NC(=O)CNC(=O)[C@H](Cc3ccccc3)NC(=O)[C@H](CCCNC(=N)N)NC(=O)[C@H](CCSC)NC(=O)CNC(=O)[C@H](C)NC(=O)[C@H](CCCCN)NC(=O)[C@H](CCCCN)NC(=O)[C@@H]3CSSC[C@@H](C(=O)N[C@H](C(=O)N4CCC[C@H]4C(=O)N[C@@H](CCCCN)C(=O)O)[C@@H](C)O)NC(=O)[C@H](Cc4c[nH]cn4)NC(=O)[C@H](CSSC[C@H](NC(=O)[C@H](CCC(N)=O)NC(=O)[C@H](CCCNC(=N)N)NC(=O)[C@H](CO)NC1=O)C(=O)N[C@@H](CC(C)C)C(=O)N[C@@H](CCC(=O)O)C(=O)N1CCC[C@H]1C(=O)N3)NC(=O)[C@H](CCCCN)NC(=O)[C@H](CCCNC(=N)N)NC(=O)[C@H](CC(N)=O)NC(=O)[C@H](CCSC)NC2=O [G31R]	0.343 nM	0.314 nM		
CC[C@H](C)[C@@H]1NC(=O)[C@H](CCCCN)NC(=O)[C@@H](NC(=O)[C@H](CCCCN)NC(=O)[C@@H](NC(=O)[C@H](CC(N)=O)NC(=O)[C@@H](NC(=O)[C@@H](NC(=O)[C@@H](NC(=O)CN)C(C)C)[C@@H](C)CC)[C@@H](C)CC)C(C)C)CSSC[C@@H]2NC(=O)[C@H](CCCCN)NC(=O)CNC(=O)[C@H](Cc3ccccc3)NC(=O)[C@H](CCCNC(=N)N)NC(=O)[C@H](CCSC)NC(=O)CNC(=O)[C@H](C)NC(=O)[C@H](CCCCN)NC(=O)[C@H](CCCCN)NC(=O)[C@@H]3CSSC[C@@H](C(=O)N[C@H](C(=O)N4CCC[C@H]4C(=O)N[C@@H](CCCCN)C(=O)O)[C@@H](C)O)NC(=O)[C@H](Cc4c[nH]cn4)NC(=O)[C@H](CSSC[C@H](NC(=O)[C@H](CCC(N)=O)NC(=O)[C@H](CCCNC(=N)N)NC(=O)[C@H](CO)NC1=O)C(=O)N[C@@H](CCCNC(=N)N)C(=O)N[C@@H](CCC(=O)O)C(=O)N1CCC[C@H]1C(=O)N3)NC(=O)[C@H](CCCCN)NC(=O)CNC(=O)[C@H](CC(N)=O)NC(=O)[C@H](CCSC)NC2=O [L15R] (H-GVIINVKCKISRQCREPCKKAGMRFGKCMNGKCHCTPK-OH; disulfide 8-28, 14-33, 18-35)	0.116 nM	0.093 nM		
CC[C@H](C)[C@H](NC(=O)[C@H](C)NC(=O)CN)C(=O)N[C@H](C(=O)N[C@@H](CC(N)=O)C(=O)N[C@H](C(=O)N[C@@H](CCCCN)C(=O)N[C@H]1CSSC[C@@H]2NC(=O)[C@H](CCCCN)NC(=O)CNC(=O)[C@H](Cc3ccccc3)NC(=O)[C@H](CCCNC(=N)N)NC(=O)[C@H](CCSC)NC(=O)CNC(=O)[C@H](C)NC(=O)[C@H](CCCCN)NC(=O)[C@H](CCCCN)NC(=O)[C@@H]3CSSC[C@@H](C(=O)N[C@H](C(=O)N4CCC[C@H]4C(=O)N[C@@H](CCCCN)C(=O)O)[C@@H](C)O)NC(=O)[C@H](Cc4c[nH]cn4)NC(=O)[C@H](CSSC[C@H](NC(=O)[C@H](CCC(N)=O)NC(=O)[C@H](CCCNC(=N)N)NC(=O)[C@H](CO)NC(=O)[C@H]([C@@H](C)CC)NC(=O)[C@H](CCCCN)NC1=O)C(=O)N[C@@H](CC(C)C)C(=O)N[C@@H](CCC(=O)O)C(=O)N1CCC[C@H]1C(=O)N3)NC(=O)[C@H](CCCCN)NC(=O)CNC(=O)[C@H](CC(N)=O)NC(=O)[C@H](CCSC)NC2=O)C(C)C)[C@@H](C)CC [V2A] (H-GAIINVKCKISRQCLEPCKKAGMRFGKCMNGKCHCTPK-OH; disulfide 8-28, 14-33, 18-35)	0.104 nM	0.0884 nM		
CC[C@H](C)[C@@H]1NC(=O)[C@H](CCCCN)NC(=O)[C@@H](NC(=O)[C@H](CCCCN)NC(=O)[C@@H](NC(=O)[C@H](CC(N)=O)NC(=O)[C@@H](NC(=O)[C@@H](NC(=O)[C@@H](NC(=O)CN)C(C)C)[C@@H](C)CC)[C@@H](C)CC)C(C)C)CSSC[C@@H]2NC(=O)[C@H](CCCCN)NC(=O)CNC(=O)[C@H](Cc3ccccc3)NC(=O)[C@H](CCCNC(=N)N)NC(=O)[C@H](CCSC)NC(=O)[C@H](Cc3cccc4ccccc34)NC(=O)[C@H](C)NC(=O)[C@H](CCCCN)NC(=O)[C@H](CCCCN)NC(=O)[C@@H]3CSSC[C@@H](C(=O)N[C@H](C(=O)N4CCC[C@H]4C(=O)N[C@@H](CCCCN)C(=O)O)[C@@H](C)O)NC(=O)[C@H](Cc4c[nH]cn4)NC(=O)[C@H](CSSC[C@H](NC(=O)[C@H](CCC(N)=O)NC(=O)[C@H](CCCNC(=N)N)NC(=O)[C@H](CO)NC1=O)C(=O)N[C@@H](CC(C)C)C(=O)N[C@@H](CCC(=O)O)C(=O)N1CCC[C@H]1C(=O)N3)NC(=O)[C@H](CCCCN)NC(=O)CNC(=O)[C@H](CC(N)=O)NC(=O)[C@H](CCSC)NC2=O [G22Nal] (H-GVIINVKCKISRQCLEPCKKA[1Nal]MRFGKCMNGKCHCTPK-OH; disulfide 8-28, 14-33, 18-35)	10.6 nM	10.3 nM		
GVIINVKCKISRQCLEPCKKAGMRFGKCMAGKCHCTPK [Ala-30 (SEQ ID No: 1425)]				IC50 ([1]; read-out: Average IC50 IFNg): 0.637 nM; IC50 ([2]; read-out: Average IC50 IL-2): 0.971 nM
SEQ ID No: 4989: OSK1 analog without beta strand 1 (labeled des 1-7), Table 42 (CKISRQCLKPCKDAGMRFGKCMNGKCHC-NH2; ends and bridges not checked)			retain activity in blocking inflammation	
CC[C@H](C)[C@@H]1NC(=O)[C@H](CCCCN)NC(=O)[C@@H](NC(=O)[C@H](CCCCN)NC(=O)[C@@H](NC(=O)[C@H](CC(N)=O)NC(=O)[C@@H](NC(=O)[C@@H](NC(=O)[C@@H](NC(=O)CN)C(C)C)[C@@H](C)CC)[C@@H](C)CC)C(C)C)CSSC[C@@H]2NC(=O)[C@H](CCCCN)NC(=O)CNC(=O)[C@H](Cc3ccccc3)NC(=O)[C@H](CCCNC(=N)N)NC(=O)[C@H](CCSC)NC(=O)CNC(=O)[C@H](C)NC(=O)[C@H](CCCCN)NC(=O)[C@H](CCCCN)NC(=O)[C@@H]3CSSC[C@@H](C(=O)N[C@H](C(=O)N4CCC[C@H]4C(=O)N[C@@H](CCCCN)C(=O)O)[C@@H](C)O)NC(=O)[C@H](Cc4c[nH]cn4)NC(=O)[C@H](CSSC[C@H](NC(=O)[C@H](Cc4cccc5ccccc45)NC(=O)[C@H](CCCNC(=N)N)NC(=O)[C@H](CO)NC1=O)C(=O)N[C@@H](CC(C)C)C(=O)N[C@@H](CCC(=O)O)C(=O)N1CCC[C@H]1C(=O)N3)NC(=O)[C@H](CCCCN)NC(=O)CNC(=O)[C@H](CC(N)=O)NC(=O)[C@H](CCSC)NC2=O [Q13Nal] (H-GVIINVKCKISR[1Nal]CLEPCKKAGMRFGKCMNGKCHCTPK-OH; disulfide 8-28, 14-33, 18-35)		0.14 nM		
B1			potent blockade	
B2			potent blockade	
